Experimental data published in patent publication US9655980B2, “Theranostic platform for targeted cancer therapy and drug delivery monitoring” (University of Pittsburgh—Of the Commonwealth System of …, priority 2012, dated 2017).
Where “and” joins values, the source holds several entries; their conditions need not be identical. Equal entries are not always repeated.

Experiments:
[1] = tested on: wild-type mouse malignant astrocytoma DBT (wt-DBT) cells; assay: In vitro cytotoxicity, hemocytometer-based trypan blue dye exclusion; type: cell-based; details: for cell viability: 2×10^−7 and 1×10^−5 M, 48 h
From the text: FIG. 4 is a graph showing the results cell viability tests of QR-G1-COOH and QR-G2-COOH on the wt-DBT cell line. Values are presented as mean±standard deviation.
The in vitro cytotoxicity of QR-G1-COOH and QR-G2-COOH against wild-type mouse malignant astrocytoma DBT (wt-DBT) cells was investigated using a hemocytometer-based trypan blue dye exclusion method.

[2] = Photostability: NIR absorbance under ambient light; type: physicochemical; details: for decrease of absorbance after exposure to ambient light: 2 hours, absorption maximum wavelength; for NIR absorbance remaining: 31 days ambient light; for photostability compared with ICG: ambient light
Procedure: FIG. 3 is a graph showing the photostability of QR-G1-COOH, QR-G2-COOH and ICG in DMSO. Samples were exposed to the ambient light and the change of optical density at absorption maximum wavelength was monitored over time. All samples have the initial absorbance of about 1.2 at the absorption maximum wavelength. The signals were normalized against the values at 0 hour.
To evaluate the photostability of QR-G1-COOH and QR-G2-COOH, the NIR absorbance of these molecules exposed to ambient light was monitored and the results were compared with that of the FDA approved NIR dye, indocyanine green (ICG).

[3] = UV-vis absorption and emission spectra (photophysical properties); type: physicochemical
From the text: FIG. […]
Similar observations have been reported on extended perylenediimides. […] This fluorescence enhancement in pluronic compared to water can be explained by the disruption of the non-fluorescent dye aggregates by pluronic, which formed micelles with dye monomers inside. The strong absorption in the NIR region and weak emission may render QR-G1-COOH to a promising photoacoustic imaging agent.

[4] = Solubility / hydrophilicity observations; type: physicochemical; details: for hydrophilicity: as sodium salts
From the text: The most challenging step encountered during the synthesis of QR-G1-COOH and QR-G2-COOH was the ring cyclization of biperylene 6. Many quaterrylenes reported were synthesized through a base-assisted cyclodehydrogenation reaction using molten KOH/glucose, tert-BuOK/DBN in diglyme, or K2CO3 in ethanolamine. However, these reaction systems are not applicable for the synthesis of quaterrylene 7 because of the high reactivity of aldehyde under the harsh basic conditions. Recently, Müllen's group reported milder conditions for the preparation of uaterrylenedicarboximides and rylenediimides by the Lewis acids FeCl3/CH3NO2 and AlCl3/chlorobenzene. […] The following reduction of aldehyde groups on 7 by NaBH4 yielded benzyl alcohol 8 with a relatively low yield (32%). Coupling quaterrylene 8 with dendrons 9 and 10 provided the dendrimers QR-G1-triester and QR-G2-triester in 35% and 28% yields after purification by column chromatography.

[5] = UV-vis absorption and emission spectra (photophysical properties); type: physicochemical; details: DMSO; for Fluorescence quantum yield Φ: ICG in methanol as standard

Compound	decrease of absorbance after exposure to ambient light ([2]; DMSO)	ε (molar extinction coefficient) ([3]; methanol)	λem ([3]; methanol, excited at 720 nm) [nm]	ε ([3]; water)	λabs ([3]; water) [nm]	absorbance change after illumination ([2]; DMSO, 3 days ambient light) [%]	NIR absorbance remaining ([2]; DMSO) [%]	photostability compared with ICG [2]	cytotoxicity to DBT cells [1]	cell viability ([1]; wt-DBT cells)	hydrophilicity [4]	λem [5] [nm]	Fluorescence quantum yield Φ [5] [%]	other results
C[S+](C)[O-] [DMSO, reference compound]														live cells (positive control group) ([1]; wt-DBT cells, 5% DMSO, after 48 h): 66.9%
CC1(C)C(/C=C/C=C/C=C/C=C2\N(CCCCS(=O)(=O)O)c3ccc4ccccc4c3C2(C)C)=[N+](CCCCS(=O)(=O)[O-])c2ccc3ccccc3c21 [ICG, indocyanine green, reference compound]	48%													absorbance observed after illumination ([2]; DMSO, 3 days ambient light): no significant absorbance
CC(C)c1cccc(C(C)C)c1N1C(=O)c2cc(Oc3ccc(COC(=O)CCC(=O)NC(CCC(=O)O)(CCC(=O)O)CCC(=O)O)cc3)c3c4ccc5c6ccc7c8c(Oc9ccc(COC(=O)CCC(=O)NC(CCC(=O)O)(CCC(=O)O)CCC(=O)O)cc9)cc9c%10c(cc(Oc%11ccc(COC(=O)CCC(=O)NC(CCC(=O)O)(CCC(=O)O)CCC(=O)O)cc%11)c(c%11ccc(c%12ccc(c%13c(Oc%14ccc(COC(=O)CCC(=O)NC(CCC(=O)O)(CCC(=O)O)CCC(=O)O)cc%14)cc(c2c3%13)C1=O)c4c5%12)c6c7%11)c%108)C(=O)N(c1c(C(C)C)cccc1C(C)C)C9=O [QR-G1-COOH]	no significant absorbance change	146000 M⁻¹ cm⁻¹ and 143000 M⁻¹ cm⁻¹	813	0.74 10^5 M^−1 cm^−1	739	1	85	dramatically more photostable than ICG	low cytotoxicity	about 90%	high hydrophilicity	816	0.11	fluorescence in pluronic compared to water ([3]; 0.4% wt/wt of pluronic): large fluorescence enhancement; λabs ([3]; methanol): 771 nm and 728 nm; λem ([3]; water, pluronic ~0.4 wt %/wt): 807 nm; fluorescence in water ([3]; water, excited at 720 nm): nearly no fluorescence
CC(C)c1cccc(C(C)C)c1N1C(=O)c2cc(Oc3ccc(COC(=O)CCC(=O)NC(CCC(=O)OC(C)(C)C)(CCC(=O)OC(C)(C)C)CCC(=O)OC(C)(C)C)cc3)c3c4ccc5c6ccc7c8c(Oc9ccc(COC(=O)CCC(=O)NC(CCC(=O)OC(C)(C)C)(CCC(=O)OC(C)(C)C)CCC(=O)OC(C)(C)C)cc9)cc9c%10c(cc(Oc%11ccc(COC(=O)CCC(=O)NC(CCC(=O)OC(C)(C)C)(CCC(=O)OC(C)(C)C)CCC(=O)OC(C)(C)C)cc%11)c(c%11ccc(c%12ccc(c%13c(Oc%14ccc(COC(=O)CCC(=O)NC(CCC(=O)OC(C)(C)C)(CCC(=O)OC(C)(C)C)CCC(=O)OC(C)(C)C)cc%14)cc(c2c3%13)C1=O)c4c5%12)c6c7%11)c%108)C(=O)N(c1c(C(C)C)cccc1C(C)C)C9=O [QR-G1-triester]														solubility in organic solvents ([4]; toluene, dichloromethane, chloroform, ethyl acetate, methanol): highly soluble
CC(C)c1cccc(C(C)C)c1N1C(=O)c2cc(Oc3ccc(COC(=O)CCC(=O)NC(CCC(=O)NC(CCC(=O)O)(CCC(=O)O)CCC(=O)O)(CCC(=O)NC(CCC(=O)O)(CCC(=O)O)CCC(=O)O)CCC(=O)NC(CCC(=O)O)(CCC(=O)O)CCC(=O)O)cc3)c3c4ccc5c6ccc7c8c(Oc9ccc(COC(=O)CCC(=O)NC(CCC(=O)NC(CCC(=O)O)(CCC(=O)O)CCC(=O)O)(CCC(=O)NC(CCC(=O)O)(CCC(=O)O)CCC(=O)O)CCC(=O)NC(CCC(=O)O)(CCC(=O)O)CCC(=O)O)cc9)cc9c%10c(cc(Oc%11ccc(COC(=O)CCC(=O)NC(CCC(=O)NC(CCC(=O)O)(CCC(=O)O)CCC(=O)O)(CCC(=O)NC(CCC(=O)O)(CCC(=O)O)CCC(=O)O)CCC(=O)NC(CCC(=O)O)(CCC(=O)O)CCC(=O)O)cc%11)c(c%11ccc(c%12ccc(c%13c(Oc%14ccc(COC(=O)CCC(=O)NC(CCC(=O)NC(CCC(=O)O)(CCC(=O)O)CCC(=O)O)(CCC(=O)NC(CCC(=O)O)(CCC(=O)O)CCC(=O)O)CCC(=O)NC(CCC(=O)O)(CCC(=O)O)CCC(=O)O)cc%14)cc(c2c3%13)C1=O)c4c5%12)c6c7%11)c%108)C(=O)N(c1c(C(C)C)cccc1C(C)C)C9=O [QR-G2-COOH]	no significant absorbance change	121000 M⁻¹ cm⁻¹	815	0.56 10^5 M^−1 cm^−1	743	3	77	dramatically more photostable than ICG	low cytotoxicity	about 90%	high hydrophilicity	816	0.32	quantum yield relative to QR-G1-COOH ([3]; Table 1): roughly two times higher; ε ([3]; methanol, values in order of the listed absorption bands): 1.21 10^5 M^−1 cm^−1; λem ([3]; water, pluronic ~10 wt %/wt): 809 nm
